# Assay results as given in patent US9127016B2, “Small molecule inhibitors of Dusp6 and uses therefor” (University of Pittsburgh—Of the Commonwealth System of …, priority 2009, dated 2015).
# Experiments:
# [1] = system: cardiac progenitors / heart size; test: Cardiac progenitor and heart size analysis in treated embryos; assay type: in vivo, zebrafish
# Experimental: (§1) In situ hybridization experiments were carried out as described previously (Kudoh, T. et al. Genome Res 11, 1979-87 (2001)). The probes eng3, krox20, sef, dusp6, gata4, nkx2.5, cmlc2, vmhc, scl, etsrp and hand2 were generated with a RNA labeling kit (Roche) (Tsang, M. et al. Development 131, 2769-79 (2004); Chen, J. N. et al. Development 122, 3809-16 (1996); Ekker, M., et al. Development 116, 1001-10 (1992); Liao, E. C. et al. Genes Dev 12, 621-6 (1998); Oxtoby, E. et al. Nucleic Acids Res 21, 1087-95 (1993); Pham, V. N. et al. Dev Biol 303, 772-83 (2007); Tsang, M., et al. Nat Cell Biol 4, 165-9 (2002); Yelon, D., et al. Dev Biol 214, 23-37 (1999); and Yelon, D. et al. Development 127, 2573-82 (2000)). The double fluorescent in situ hybridization protocol was described by Schoenbeck et al. (Dev Cell 13, 254-67 (2007)). Fluorescent in situ hybridizations were visualized by confocal microscopy. Single optical sections and z-series of flat-mounted stained embryos were collected with a confocal laser scan head (SP5, Leica Microsystems, Inc.) mounted on an inverted compound microscope (DM16000, Leica Microsystems, Inc.). Images were scanned and compiled with NIH ImageJ software (rsb.info.nih.gov/ij/).
# The identification of a small molecule that blocks the biologically relevant activity of Dusp6 and Dusp1 allowed us to probe the requirement for these enzymes in later developmental processes. Given that BCI could potentially block related members of the Dusp family, we examined the expression of other dusps in zebrafish. Detailed expression analyses of several dusps have been described and include dusp4, dusp1, dusp7, dusp5, and dusp22a (Qian, F. et al. Dev Dyn 233, 1163-72 (2005); Sumanas, S., et al. Blood 106, 534-41 (2005); Brown, J. L. et al. Proc Natl Acad Sci USA 105, 12337-42 (2008); Kudoh, T. et al. Genome Res 11, 1979-87 (2001); and Thisse, B. et al. Fast Release Clones: A High Throughput Expression Analysis. ZFIN Direct Data Submission (zfin.org) (2004)). Of these only Dusp6 functions as a feedback regulator of FGF/MAPK/ERK signaling and is expressed within the anterior lateral plate mesoderm, supporting the idea that this phosphatase plays a role in heart development. In early embryogenesis, Dusp6 is an important regulator of FGF signaling; knock-down with antisense morpholinos results in embryo polarity defects, which precludes the study of Dusp6′s role in later development (Tsang, M. et al. Development 131, 2769-79 (2004)). In contrast, small molecules permit the analysis at later stages of development due to rapid and transient perturbation of their biological targets. Using BCI as a chemical probe, we asked how inhibiting Dusp6 activity would alter patterning and formation of the heart. The zebrafish heart develops from a small group of cardiac progenitor cells that can be identified by 5 hpf within the mesodermal layer of the blastula stage embryo. During gastrulation, cardiac progenitor cells undergo cellular migration to form two bilateral populations known as the anterior lateral plate mesoderm (ALPM) located just behind the MHB, and begin to express the transcription factors nkx2.5 and gata4. Studies have described a role for Fgf8 in zebrafish heart development. In embryos harboring an fgf8 mutation, both atria and ventricular cells are reduced (Marques, S. R., et al. Dev Biol 321, 397-406 (2008) and Reifers, F., et al. Development 127, 225-35 (2000)). In agreement with the notion that FGF signaling plays a role in stipulating heart size, ectopic expression of a constitutively activated FGF receptor (Fgfrl) during somitogenesis stages expanded cardiac tissue (Marques, S. R., et al. Dev Biol 321, 397-406 (2008)). Therefore we used BCI to test if Dusp6 limits FGF signaling and restricts cardiac progenitors and heart organ size. In BCI-treated embryos a caudal expansion of gata4 in the ALPM was observed (compare FIG. 14a & a′ to 14b & b′; 81%, n=16). […]
# [2] = system: XFD (dominant negative FGF receptor); test: Zebrafish mRNA microinjection, rescue of sef expression, XFD; assay type: in vivo; conditions: 5 μM BCI, shield stage
# Experimental: dusp6 and XFD mRNA for microinjection studies were generated as previously described (Tsang, M. et al. Development 131, 2769-79 (2004)). Both Dusp5 and Spry4 ORFs were amplified by RT-PCR from 24 hpf zebrafish with the following primers: […]
# Amplified PCR products were subcloned into pCS2+, sequenced verified and mRNAs were synthesized as described previously. Embryos were injected with 500 pg mRNA at the 1-2 cell stage, treated with 5 μM BCI at the 1000-cell stage and fixed at shield stage for in situ hybridization.
# as §1, with “Fluorescent in situ hybridizations were visualized by confocal microscopy. Single optical sections and z-series of flat-mounted stained embryos were collected with a confocal laser scan head (SP5, Leica Microsystems, Inc.) mounted on an inverted compound microscope (DM16000, Leica Microsystems, Inc.). Images were scanned and compiled with NIH ImageJ software (rsb.info.nih.gov/ij/).” left out
# ERK2-stimulated Dusp6 = target: T1, ERK2-stimulated Dusp6 (Homo sapiens, UniProt Q16828); test: ERK2-induced activation of Dusp6, OMFP dephosphorylation; assay type: biochemical; conditions: BCI 100 μM
# T1 construct: His; made in house
# Experimental: For OMFP based ERK2 induced activation of Dusp6, recombinant His-tagged Dusp6 was expressed from a bacterial expression vector and 250 ng were incubated with the indicated concentrations of NSC95397 or BCI. OMFP was added at its apparent Km (100 μM) (Vogt, A. et al. J Biol Chem 280, 19078-86 (2005)). The final reaction volume was 15 μl. After 1 h at RT, OMF fluorescence was measured on an M5 multimode reader (Molecular Devices) at excitation/emission wavelengths of 485/525 nm. To assay activated Dusp6, 210 ng or 2.1 μg of recombinant ERK2 (Cell signaling) were added to Dusp6(210 ng)/BCI(100 μM) mixtures to measure activation at 1:1 and 1:10 ratio of substrate to enzyme. OMFP was immediately added and fluorescence (ex485/em525 nm) was read every 10 min for 130 min. Fold activation was calculated at 60 mins in each experiment.
# T1 sequence (Q16828 whole entry): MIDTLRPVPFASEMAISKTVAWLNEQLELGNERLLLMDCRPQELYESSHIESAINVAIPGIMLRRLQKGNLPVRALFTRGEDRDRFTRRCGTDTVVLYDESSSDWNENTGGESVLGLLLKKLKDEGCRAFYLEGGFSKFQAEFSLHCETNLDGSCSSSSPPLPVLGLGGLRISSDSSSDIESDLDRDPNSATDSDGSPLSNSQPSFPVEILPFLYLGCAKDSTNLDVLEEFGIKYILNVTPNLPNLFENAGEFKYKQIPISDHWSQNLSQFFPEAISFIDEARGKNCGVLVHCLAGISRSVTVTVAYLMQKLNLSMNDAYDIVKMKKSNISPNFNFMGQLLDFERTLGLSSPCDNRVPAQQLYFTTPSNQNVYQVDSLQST
# T1 sequence (P28482 whole entry partner): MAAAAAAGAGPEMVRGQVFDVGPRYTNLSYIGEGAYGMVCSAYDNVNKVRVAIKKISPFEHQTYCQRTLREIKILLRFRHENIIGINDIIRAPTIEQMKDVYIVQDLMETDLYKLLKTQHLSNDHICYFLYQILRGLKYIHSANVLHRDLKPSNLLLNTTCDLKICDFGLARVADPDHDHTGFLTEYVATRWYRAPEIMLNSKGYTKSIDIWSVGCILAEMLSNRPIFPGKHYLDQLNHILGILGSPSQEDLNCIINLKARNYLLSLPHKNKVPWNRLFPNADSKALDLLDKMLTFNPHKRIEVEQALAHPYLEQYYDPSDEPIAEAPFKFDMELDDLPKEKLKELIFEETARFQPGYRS
smiles,measurement,setting,value
"O=C1/C(=C/c2ccccc2)C(NC2CCCCC2)c2ccccc21 (stereo not drawn) [Compound 3, (E)-2-benzylidene-3-(cyclohexylamino)-2,3-dihydro-1H-inden-1-one]",embryos with expansion of cardiac hand2 expression,"[1]; 10-somite stage, n=19",32%
same,embryos with increase in cmlc2 positive cells,"[1]; 18-somite stage, n=16",81%
same,embryos with expanded nkx2.5 cardiac progenitor pools,[1]; n=11,91%
same,embryos with caudal expansion of gata4 in the ALPM,"[1]; n=16, 10-somite stage",81%
same,cardiac tissue in larvae,"[1]; treated at 40% epiboly, washout next day, 56 hpf",marked expansion in cardiac tissue
same,embryos with marked reduction in scl expression,"[1]; treated from the 1-somite stage, n=15",93%
same,reversal of effects of XFD mRNA on sef expression,[2],did not reverse
same,inhibition of ERK2-stimulated Dusp6 dephosphorylation of OMFP,ERK2-stimulated Dusp6; ERK2 three-fold stimulation (1:1),57%
same,inhibition of ERK2-stimulated Dusp6 dephosphorylation of OMFP,"ERK2-stimulated Dusp6; ratio of ERK2 to Dusp6 10:1, 7-fold enhancement",30%
